From US12053475B2, “TRPC ion channel inhibitors for use in therapy” (UNIVERSITY OF LEEDS, priority 2017, dated 2024)
One block for each compound: values may come before it.

Assays:
[1] = molecular target: T1, TRPC5 (Homo sapiens, UniProt Q9UL62); design: host or cells: HEK239 (so in the source); details: HEK239 cells expressing TRPC5; Naylor et al.; cited from earlier work
T1 sequence (Q9UL62 1-973): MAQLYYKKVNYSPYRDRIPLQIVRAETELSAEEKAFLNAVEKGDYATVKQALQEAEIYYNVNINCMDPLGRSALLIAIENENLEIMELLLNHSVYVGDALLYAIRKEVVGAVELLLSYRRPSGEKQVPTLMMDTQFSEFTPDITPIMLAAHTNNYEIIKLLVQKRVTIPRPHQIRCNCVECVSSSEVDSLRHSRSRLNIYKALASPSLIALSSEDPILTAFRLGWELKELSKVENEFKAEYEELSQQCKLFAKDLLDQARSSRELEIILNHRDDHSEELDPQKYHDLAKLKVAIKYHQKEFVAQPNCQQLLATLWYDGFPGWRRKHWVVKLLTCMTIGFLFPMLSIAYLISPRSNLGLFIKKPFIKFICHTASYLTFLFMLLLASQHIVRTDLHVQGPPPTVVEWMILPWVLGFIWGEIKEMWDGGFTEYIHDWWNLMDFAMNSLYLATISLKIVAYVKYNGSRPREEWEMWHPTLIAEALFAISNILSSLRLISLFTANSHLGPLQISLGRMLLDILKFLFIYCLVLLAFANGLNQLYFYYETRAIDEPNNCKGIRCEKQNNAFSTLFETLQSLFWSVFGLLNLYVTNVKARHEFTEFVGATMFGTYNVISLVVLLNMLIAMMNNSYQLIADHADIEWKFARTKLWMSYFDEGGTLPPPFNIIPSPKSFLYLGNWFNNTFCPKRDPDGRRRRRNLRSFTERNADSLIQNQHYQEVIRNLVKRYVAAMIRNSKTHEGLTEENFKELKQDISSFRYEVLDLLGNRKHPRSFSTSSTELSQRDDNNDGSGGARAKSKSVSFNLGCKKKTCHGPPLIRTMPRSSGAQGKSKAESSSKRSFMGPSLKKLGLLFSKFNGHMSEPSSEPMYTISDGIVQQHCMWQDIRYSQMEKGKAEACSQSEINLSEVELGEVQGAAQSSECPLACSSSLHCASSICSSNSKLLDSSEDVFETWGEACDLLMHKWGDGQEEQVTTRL

[2] = molecular target: T1, TRPC5; design: host or cells: HEK239 (so in the source); details: Mol Pharmacol. 2014; cited from earlier work
[3] = test system: adipocytes from subcutaneous white adipose tissue of mice; test: Respirometry (oxygen consumption) in adipocytes; type: cell-based; details: 10 μM DE2, 24 hr pre-incubation; vs DMSO; FIG. 13
Procedure: Protein preparation and immunoblotting Proteins were isolated from cells and tissues using radio-immunoprecipitation assay (RIPA) buffer containing (in mM) 150 NaCl, 20 Tris HCl, 1 EGTA, 1 EDTA, 1% NP-40, 0.1% sodium dodecyl sulfate (SDS) and 1% sodium deoxylate. Complete™ protease inhibitor (Roche Life Science) was added into RIPA fresh before use in accordance with the manufacturer's instructions. Immunoblotting was carried out under standard protocols with primary antibodies anti-UCP1 (1:500, ab23841; Abcam), Cytochrome C (1:4000, ab110325; Abcam), Akt (pan) (1:1000, 4691; Cell Signaling) and Phospho-Akt (Ser473) (1:500, 4060; Cell Signaling). […] The cells were inoculated into the OROBOROS Oxygraph-2k chambers and oxidative phosphorylation analyses were performed using the mitochondrial substrate-uncoupler-inhibitor-titration protocol consisting of: substrate activation using sodium pyruvate, inhibition of ATP synthase using oligomycin, uncoupling via sequential addition of FCCP to maximum oxygen flux, mitochondria complex I and III inhibition using Rotenone and Antimycin A. Traces were analyzed using DatLab 6 Software (OROBOROS), measuring for routine state respiration (routine), mitochondrial leak (leak), maximum uncoupling capacity of the electron transport system (ETS) and rotenone and antimycin A-inhibited residual oxygen consumption (ROX). […]

[4] = molecular target: T1, TRPC5; test: Intracellular Ca2+ measurement, HEK 293 cells expressing inducible human TRPC5, activated by (−)-Englerin A; type: cell-based; design: expressed in transfected cells; details: 10 μM DE2, 30 min pre-incubation; EA 100 nM; FIG. 12
Procedure: (§1) Cell culture Mouse stromal vascular fraction (SVF) cells from subcutaneous adipose tissue were isolated by mincing of the tissue followed by enzymatic digestion with 0.3 mg·mL^−1 Collagenase type II (Sigma), 0.3 mg·mL^−1 Collagenase type IV (Sigma), 2 mg·mL^−1 BSA (Sigma), 0.08 mg·mL^−1 DNase I (Sigma) and 0.04 mg·mL^−1 Dispase (Thermo Fisher Scientific) in serum free RPMI 1640 media (Gibco) for 45 min at 37° C. in 95% O2 and 5% CO2 environment. Isolated cells were centrifuged and processed through a 100 μm cell strainer. Following centrifugation, the cell pellet was reconstituted in full RPMI 1640 media containing 15% fetal calf serum and 1% penicillin-streptomycin (Gibco). Media was changed on the following day to remove non-adherent cells. […]
(§2) Intracellular Ca^2+ measurement HEK 293 cells containing stable incorporation of inducible TRPC4 or TRPC5 expression were seeded into 96-well clear-bottomed poly-D-lysine-coated black plates (Corning Life Sciences) at 90% confluence 24 hr before the experiment. […] The Fura-2-AM fluorescence was recorded using a 96-well fluorescence plate reader FlexStation II (Molecular Devices) at excitation wavelengths of 340 nm and 380 nm, and the emitted light was collected at 510 nm. […]

[5] = molecular target: T2, human TRPC4 (Homo sapiens, UniProt Q9UBN4); test: Intracellular Ca2+ measurement, HEK 293 cells expressing inducible human TRPC4, activated by (−)-Englerin A; type: cell-based; details: 10 μM DE2, 30 min pre-incubation; EA 100 nM; FIG. 12
T2 construct: expressed in transfected cells
T2 sequence (Q9UBN4 1-977): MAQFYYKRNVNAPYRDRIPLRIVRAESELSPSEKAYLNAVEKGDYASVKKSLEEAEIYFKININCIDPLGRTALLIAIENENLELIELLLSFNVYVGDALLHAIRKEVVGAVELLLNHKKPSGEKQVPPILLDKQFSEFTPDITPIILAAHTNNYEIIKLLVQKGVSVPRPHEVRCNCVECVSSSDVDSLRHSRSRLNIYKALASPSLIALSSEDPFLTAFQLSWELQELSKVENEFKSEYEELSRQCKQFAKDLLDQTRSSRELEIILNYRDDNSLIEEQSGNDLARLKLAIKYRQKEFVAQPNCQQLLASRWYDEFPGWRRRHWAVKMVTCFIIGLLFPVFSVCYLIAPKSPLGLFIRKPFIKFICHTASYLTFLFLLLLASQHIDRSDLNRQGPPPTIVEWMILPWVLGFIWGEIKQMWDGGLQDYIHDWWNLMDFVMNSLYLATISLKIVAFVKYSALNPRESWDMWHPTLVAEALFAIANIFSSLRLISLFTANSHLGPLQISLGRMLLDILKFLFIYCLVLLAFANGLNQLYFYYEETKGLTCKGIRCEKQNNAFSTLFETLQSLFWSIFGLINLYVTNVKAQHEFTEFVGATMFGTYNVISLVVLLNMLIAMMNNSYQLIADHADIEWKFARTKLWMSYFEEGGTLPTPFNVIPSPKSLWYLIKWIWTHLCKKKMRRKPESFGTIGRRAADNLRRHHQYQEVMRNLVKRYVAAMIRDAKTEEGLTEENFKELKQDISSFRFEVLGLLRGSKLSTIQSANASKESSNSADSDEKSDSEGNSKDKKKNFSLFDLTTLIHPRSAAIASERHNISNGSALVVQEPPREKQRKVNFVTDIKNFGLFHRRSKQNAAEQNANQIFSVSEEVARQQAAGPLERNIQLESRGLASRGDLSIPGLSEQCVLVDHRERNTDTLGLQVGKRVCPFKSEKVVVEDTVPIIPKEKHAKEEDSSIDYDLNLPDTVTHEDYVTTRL
Procedure: as §1, §2

[6] = test system: UCP1 and Cytochrome C; test: mRNA analysis of UCP1 and Cytochrome C expression in adipocytes (beiging markers); type: cell-based, mice; details: 10 μM DE2, 24 hr pre-incubation; vs DMSO; FIG. 14
Procedure: Quantitative RT-PCR analysis RNA from cell and tissue samples was obtained using TRIzol reagent (Thermo Fisher Scientific). 1 μg RNA was reverse-transcribed using High-Capacity cDNA Reverse Transcription Kit (Applied Biosystems) and RT-PCR analysis was performed using SYBR Select Masters Mix (Thermo Fisher Scientific) and LightCycler® 480 (Roche Life Science). The primers used are tabulated in Supplementary Table 1^34. Relative fold-change in expression was calculated using the comparative cycle method (2^−ΔΔCt) Mouse Gapdh gene was used as the reference.
To determine the influence of DE2 and C31 on expression of markers of white-to-brown adipocyte phenotypic switching, transcript accumulation of UCP1 and Cytochrome C was measured by mRNA analysis in adipocytes from subcutaneous white adipose tissue (n=4-5) of C4WT, C5WT, C4KO, and C5KO mice. Cells were pre-incubated with (24 hr) and maintained in 10 μM DE2 or 100 nM C31 where indicated. The vehicle control was DMSO.

SMILES: Oc1ccc(C=Cc2cc(O)cc(O)c2)cc1 [resveratrol]
- inhibition of TRPC5 ion channel function [1]: inhibitors

SMILES: O=c1c(O)c(-c2ccccc2)oc2cc(O)cc(O)c12 [galangin]
- inhibition of TRPC5 ion channel function [1]: inhibitors

SMILES: Clc1ccc(Cn2c(CN3CCCC3)nc3ccccc32)cc1 [Clemizole, clemizole]
- inhibition of TRPC5 [2]: potent and selective inhibitor

SMILES: O=C1O[C@H]([C@@H](O)CO)C(O)=C1O [vitamin C]
- inhibition of TRPC5 ion channel function [1]: inhibitors

- inhibition of TRPC5 channels (intracellular Ca2+) [4]: demonstrated inhibition
- inhibition of TRPC4 channels (intracellular Ca2+) [5]: demonstrated inhibition
SMILES: CCN(CC)Cc1nc2ccccc2n1Cc1ccc(Cl)cc1 [DE2, ({1-[(4-Chlorophenyl)methyl]-1H-benzimidazol-2-yl}methyl)diethylamine]
- adipocyte mitochondrial respiration [3]: increases
- adipocyte UCP1/Cytochrome C expression [6]: increases
